# Measured values from patent US8623408B2, “Cladribine formulations for improved oral and transmucosal delivery” (Ares Trading S.A., priority 2003, dated 2014).
# “And” between values parts separate entries of the source, which are not always exact repeats. Equal entries are not always repeated. Where two headings read alike, the source gives them in different places.
# Experiment: Bioavailability and pharmacokinetic studies in beagle dog model
# Type: in vivo
# Design: AUC/Dose: unit not given here
# Conditions: dogs; for AUC/Dose: dose in mg/kg; for concentration at 5 min: 5 mg/animal, read-out: Cfirst (first measured concentration at 5 minutes)
# Method: The bioavailability of cladribine when complexed with γCD or HPβCD was evaluated in a beagle dog model.
# Bioavailability and pharmacokinetic studies were conducted in a beagle dog model as follows.
# Outbred male beagle dogs (identified as PM01-PM06) obtained from IDRI (Dunakeszi, Hungary) were allowed laboratory diet and water ad libitum. The same dogs were used throughout the study to minimize inter- and intrasubject variability. The bioavailability and pharmacokinetic studies were conducted as follows.
# In the first test period, 5 mg cladribine (0.25 mg/ml in isotonic saline) was administered intravenously to test subjects. Blood samples were collected at various time intervals over 48 hours. In the second test period, half of the subjects received buccally a tablet as described above containing a saturated cladribine-γCD or -HPβCD complex. Serial blood samples were collected over 48 hours. The third test period repeated the second test period with the exception that the subjects previously receiving the γ-cyclodextrin buccal tablet were now given hydroxypropyl-β-cyclodextrin buccal tablets, with hydroxypropyl-β-cyclodextrin tablet recipients from the second period receiving γ-cyclodextrin buccal tablets. The fourth and fifth test periods repeated test periods two and three with the exception that the tablets were given orally.
# Cladribine levels in the blood were measured by HPLC and an LC/MS/MS method. The TopFit 2.0 Pharmacokinetic and Pharmacodynamic Data Analysis System was used for the pharmacokinetic analysis of the data.
# The peak areas, calibration curves, accuracy, precision values and the concentrations were determined using Analyst Software 1.1 (PE SCIEX, Foster City, US). For calculation of mean and standard deviation, Excel 5.0 software was used. The calibration curve was fitted using the ratio of concentrations of analyte and internal standard versus the ratio of the peak areas of them. A straight line was fitted on the experimental points by weighted least squares linear regression analysis. The weighting scheme used was 1/concentration squared as pg/ml plasma.
# For calculation of mean, standard deviation and CV %, Excel 5.0 software was used. Lower levels than the limit of quantification were not accepted. Mean and S.D. values were calculated only for the concentrations measured after intravenous administration.
# Pharmacokinetic analysis was performed on the basis of individual plasma concentration versus time curves. The mean and S.D. of parameters obtained from individual data were calculated. The linear-trapezoidal rule was used for calculation of the area under the plasma concentration time curve from 0 until the last measured concentration (AUD). Using the terminal regression line the area extrapolated to infinity (AUCt-∞) was calculated in the following way: AUCt-∞=ccalc/λz • where: Ccalc represents the estimated plasma concentration by the regression line at the last sampling time point with measured concentration above the limit of quantification, and λz represents the rate constant calculated from the regression line.
# The points determining the regression line, i.e. the terminal phase, were selected by visual determination of the linear segment of the semilogarithmic curve. The total area under the curve (AUC) was calculated by adding together the partial areas: AUC=AUD+AUCt-∞. The AUC values were normalized by the actual dose given in the particular period. For calculation of the bioavailability, the buccal/oral AUC/dose value was divided by the intravenous AUC/dose value.
# [1] = intravenous bolus, 5 mg cladribine/animal, Mean of 6 dogs
# [2] = intravenous bolus, 5 mg cladribine/animal, individual dogs PM01-PM06
structure (smiles),measurement,setting,value
"Nc1nc(Cl)nc2c1ncn2[C@H]1C[C@H](O)[C@@H](CO)O1 [cladribine, 2-chloro-2′-deoxyadenosine]",AUD,[1],377 ng·h/mL
same,AUDext,[1],1.4%
same,Cinitial (extrapolated value at the end of the bolus),[1],563 ng/mL
same,MRTtot,[1],1.3 h
same,AUC/Dose,[1],967
same,AUC/Dose,[2],918 and 965 and 947 and 949 and 948 and 1077
same,AUC,[2],338 ng·h/mL and 366 ng·h/mL and 432 ng·h/mL and 342 ng·h/mL and 433 ng·h/mL
same,AUD,[2],379 ng · h/ml and 334 ng · h/ml and 359 ng · h/ml and 426 ng · h/ml (2×) and 337 ng · h/ml
same,AUDext,[2],1.4% (3×) and 1.0% and 1.9% and 1.5%
same,Cfirst (first measured concentration at 5 minutes),[2],306 ng/mL and 478 ng/mL and 560 ng/mL and 446 ng/mL and 605 ng/mL
same,Cinitial (extrapolated value at the end of the bolus),[2],569 ng/mL and 335 ng/mL and 567 ng/mL and 655 ng/mL and 525 ng/mL and 726 ng/mL
same,Cltot,[2],247 mL/min and 228 mL/min and 193 mL/min and 244 mL/min and 192 mL/min
same,Cltot/kg,[2],17.6 mL/min/kg and 15.4 mL/min/kg
same,MRTtot,[2],1.4 h and 1.5 h and 1.3 h (3×) and 1.2 h
same,t½ terminal,[2],11.3 h and 9.9 h and 10.4 h and 8.5 h and 10.7 h
same,clearance,"male, beagle, dog, plasma, iv, 5 mg, after intravenous administration, read-out: mean total clearance",17 mL/min/kg
same,half-life,"male, beagle, dog, plasma, iv, 5 mg, after intravenous administration, read-out: terminal elimination half-life (converted)",~600 min
same,AUC,"male, beagle, dog, plasma, iv, 5 mg, intravenous bolus, 5 mg cladribine/animal, Mean of 6 dogs, read-out: AUC",382 ng·h/mL
same,clearance,"male, beagle, dog, plasma, iv, 5 mg, intravenous bolus, 5 mg cladribine/animal, Mean of 6 dogs, read-out: Cltot",220 mL/min
same,clearance,"male, beagle, dog, plasma, iv, 5 mg, intravenous bolus, 5 mg cladribine/animal, Mean of 6 dogs, read-out: Cltot/kg",17.3 mL/min/kg
same,half-life,"male, beagle, dog, plasma, iv, 5 mg, intravenous bolus, 5 mg cladribine/animal, Mean of 6 dogs, read-out: t½ terminal (converted)",618 min
same,AUC,"male, beagle, dog, plasma, iv, 5 mg, intravenous bolus, 5 mg cladribine/animal, individual dogs PM01-PM06, read-out: AUC",383 ng·h/mL
same,clearance,"male, beagle, dog, plasma, iv, 5 mg, intravenous bolus, 5 mg cladribine/animal, individual dogs PM01-PM06, read-out: Cltot",217 mL/min
same,clearance,"male, beagle, dog, plasma, iv, 5 mg, intravenous bolus, 5 mg cladribine/animal, individual dogs PM01-PM06, read-out: Cltot/kg",18.1 mL/min/kg
same,half-life,"male, beagle, dog, plasma, iv, 5 mg, intravenous bolus, 5 mg cladribine/animal, individual dogs PM01-PM06, read-out: t½ terminal (converted)",660 min
same,concentration at 5 min,"male, beagle, dog, plasma, iv, intravenous bolus, 5 mg cladribine/animal, Mean of 6 dogs",479 ng/mL
same,concentration at 5 min,"male, beagle, dog, plasma, iv, intravenous bolus, 5 mg cladribine/animal, individual dogs PM01-PM06",477 ng/mL
